Key:
[1] = system: Brassica napus microspores; experiment: Microspore embryogenesis in liquid half-strength NLN medium with different osmotica; assay type: cell-based, Brassica napus L. cv. Topas; details: for Induction of MD embryos: within two weeks, 13% sucrose, 8% mannitol or 25% PEG 4000 (w/v), mannitol and PEG media with about 0.08%-0.1% sucrose
Procedure: A mixed population consisting of microspores from mid- and late-uninucleate stages to young bicellular pollen was isolated from the flower buds using a protocol modified from that described by Ferrie and Keller, in: Gamborg and Phillips (eds) Plant Cell, Tissue and Organ Culture, Fundamental methods, pp 155-164, 1993 (Springer Verlag). For each treatment, twelve surface-sterilized buds (3.6-4.2 mm in length) were macerated in 5 ml half-strength B5 washing medium (Gamborg et al., Exp. Cell Res. 50:151-158, 1968) containing 13% sucrose (w/v) in 50 ml beakers. The crude suspension was filtered through 44 μm Nytex nylon mesh, both beakers and meshes were rinsed, and a total of 20 ml was collected into 50 ml centrifuge tubes and centrifuged at 150×g for 3 minutes. The pellets were resuspended in 5 ml of washing medium, the washing procedure was repeated twice, and the final supernatant was carefully pipetted out, leaving the pellet in approximately 0.3-0.4 ml of washing medium. Final resuspension was done by adding filter-sterilized half-strength NLN medium (Lichter, Z. Pflanzenphysiol. 105:427-434, 1982) containing 13% (w/v) sucrose as the control treatment; in the other two treatments, ½ NLN sucrose-free medium with 8% (w/v) mannitol or 25% (w/v) PEG 4000 (Fluka Chemika) was added, respectively. Therefore, the ½ NLN-mannitol and -PEG media contained only about 0.08%-0.1% sucrose, remaining from the washing medium.
Aliquots of […] of microspore suspension were plated into 10×15 mm sterile petri dishes, with an approximate plating density of 40,000 microspores/ml. Plates were first incubated at 35° C. for one hour followed by 33° C. for the next 14-18 hours and then placed on a shaker (50 rpm) in the dark at 24° C. for 14 days. During the first 8 days in culture, PEG and mannitol media were gradually diluted by adding to the plates an adequate volume of a simple ½ NLN medium, containing no sucrose. mannitol, or PEG, to give a final concentration of approximately 22% PEG and 7% mannitol. The concentration of sucrose in the control treatment was lowered the same way to a final concentration of 11%. After two weeks, plates with MD embryos were placed under light (16/8 hours photoperiod) at 24° C. for an additional week. Experiments dealing with mannitol as osmoticum were repeated three times with five replicates, while experiments dealing with PEG and sucrose as a control were repeated at least ten times with a minimum of three replicates.
Microspores at late unicellular stage and young bicellular pollen were isolated from the flower buds using a protocol for Brassica napus, modified from that described by Ferrie and Keller, in: Gamborg and Phillips (eds) Plant Cell, Tissue and Organ Culture, Fundamental methods, pp 155-164, 1993 (Springer Verlag). Twelve surface-sterilized buds (3.6-4.2 mm in length) were macerated in a 50 ml beaker with 5 ml half-strength B5 washing medium (Gamborg et al., Exp. Cell Res. 50:151-158, 1968) containing 13% sucrose (w/v). The crude suspension was filtered through 44 μm nylon mesh and centrifuged at 150×g for 3 minutes, and the pellet was resuspended in 5 ml of washing medium. The washing procedure was repeated twice, and the final supernatant was carefully pipetted out, leaving the pellet in approximately 0.3-0.4 ml of washing medium. Final resuspension was done by adding filter-sterilized half-strength NLN medium (Lichter, Z. Pflanzenphysiol 105:427-434, 1982) containing either 13% sucrose (w/v) as a control or 25% (w/v) polyethylene glycol 4000 (Fluka Chemika). Therefore, the final ½ NLN-PEG medium contained only about 0.08%-0.1% sucrose, remaining from the washing medium.
Aliquots of 10 ml of the microspore suspension were plated into 10×15 mm sterile petri dishes, with an approximate plating density of 40,000 microspores/ml. Plates were first incubated at 35° C. for one hour followed by 33° C. for the next 14-18 hours and then placed on a shaker (50 rpm) in the dark at 24° C. for 14 days. […]

[2] = system: Brassica napus MD embryos; experiment: Conversion of three-week-old MD embryos into plantlets on hormone-free solid medium; assay type: cell-based; details: embryos grown on the named osmoticum
Procedure: Plates containing the embryos may then be placed under light at 24° C. for an additional week. Once placed under light, the embryos generally increase in size and become green quickly. Within one week under light, cotyledons are typically well-developed, often widely opened and dark green, and the embryos are morphologically similar to zygotic embryos dissected from ovules (see FIGS. 2A-2C). The three-week embryos may then be rinsed and transferred to culture containers containing a suitable medium, such as half-strength B5 medium containing 1% sucrose and no growth regulators. The conversion frequency is the percentage of MD embryos that develop roots, true leaves and a green color within 3-4 weeks. Aliquots of 10 ml of the microspore suspension were plated into 10×15 mm sterile petri dishes, with an approximate plating density of 40,000 microspores/ml. Plates were first incubated at 35° C. for one hour followed by 33° C. for the next 14-18 hours and then placed on a shaker (50 rpm) in the dark at 24° C. for 14 days. […] Conversion frequency (%) of sucrose- and PEG-cultured MD embryos was recorded based on presence of roots, appearance of first true leaves and green color of plantlets, with three replicates for each treatment.

SMILES | Cell divisions of microspores after heat shock treatment ([1]; mannitol solution) | Induction of MD embryos [1] | Plantlet morphology after transfer to solid medium [2] | Embryo length at heart-shaped stage ([1]; SEM) | Embryo length at torpedo stage ([1]; SEM) | Proembryo size at globular-to-heart-shaped transition ([1]; about day 8, SEM) | Embryo length, cotyledonary stage ([1]; after two weeks in culture) | Starch grains and protein bodies in cotyledon stage embryos ([1]; light microscopy) | Morphology of three-week-old MD embryos compared with zygotic embryos (14 and 15 DPA) ([1]; three weeks, last week under light)
OC[C@@H](O)[C@@H](O)[C@H](O)[C@H](O)CO [mannitol] | no divisions were observed | yielded no embryos |  |  |  |  |  |  | 
OC[C@H]1O[C@@](CO)(O[C@H]2O[C@H](CO)[C@@H](O)[C@H](O)[C@H]2O)[C@@H](O)[C@@H]1O [sucrose] |  | developed into embryos | hypocotyls were short, often thick (hyperhydrated) and aberrant | approximately 300 μm | ≥ 400 μm | 150-250 μm | 2-4 mm | abundant starch grains with no protein bodies | pale green, had elongated embryo axes and relatively small underdeveloped cotyledons
